From US20110082130A1 (LIGAND PHARMACEUTICALS, INC., priority 2006, published 2011)

target: T1, chimeric human H3 receptor (Homo sapiens, UniProt Q9Y5N1); test: Chimeric human H3 receptor screening GTP binding assay (inhibition of histamine-stimulated GTP-gamma35S binding, Example 8); assay type: biochemical; conditions: 4 μM of the compound, 1 μM histamine, "†" in Ki of Table II, read-out: percent inhibition of the signal obtained with 1 μM histamine
T1 construct: made in house; host or cells: Sf9 insect cells (baculovirus); P2 membrane preparation
Method in brief: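 Sf9 membranes co-expressing chimeric human H3 receptor and heterotrimeric G-protein, 35 μg per reaction, incubated 60 min at room temperature with 4 μM compound, 1 μM histamine, 10 μM GDP and […] GTP-gamma35S at pH 7.4. Filter-bound radioactivity counted. Result expressed as percent inhibition of the histamine signal after subtracting non-specific binding (10 μM GTP-gammaS).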

T1 sequence (Q9Y5N1 with tags, fused parts or gaps): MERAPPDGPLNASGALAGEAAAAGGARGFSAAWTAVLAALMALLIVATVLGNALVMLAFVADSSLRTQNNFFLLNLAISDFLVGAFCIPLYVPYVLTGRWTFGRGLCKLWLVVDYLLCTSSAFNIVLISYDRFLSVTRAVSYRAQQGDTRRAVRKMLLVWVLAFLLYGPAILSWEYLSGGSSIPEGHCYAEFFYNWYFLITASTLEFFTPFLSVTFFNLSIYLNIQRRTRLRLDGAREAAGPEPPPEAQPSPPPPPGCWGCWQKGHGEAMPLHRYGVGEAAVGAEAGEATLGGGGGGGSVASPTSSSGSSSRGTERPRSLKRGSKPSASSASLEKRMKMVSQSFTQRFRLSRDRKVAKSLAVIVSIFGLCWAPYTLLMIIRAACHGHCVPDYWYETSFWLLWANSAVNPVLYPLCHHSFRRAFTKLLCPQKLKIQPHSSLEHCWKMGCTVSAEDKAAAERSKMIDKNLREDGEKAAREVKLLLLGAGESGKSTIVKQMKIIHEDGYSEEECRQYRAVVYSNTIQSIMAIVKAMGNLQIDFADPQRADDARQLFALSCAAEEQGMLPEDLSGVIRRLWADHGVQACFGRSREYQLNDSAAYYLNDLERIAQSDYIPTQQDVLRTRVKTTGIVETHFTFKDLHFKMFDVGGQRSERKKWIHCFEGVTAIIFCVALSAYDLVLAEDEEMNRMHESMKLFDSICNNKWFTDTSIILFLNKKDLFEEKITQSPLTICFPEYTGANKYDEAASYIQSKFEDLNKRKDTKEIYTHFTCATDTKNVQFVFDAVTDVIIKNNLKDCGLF

Inhibition at 4 µM, ≥ 90%:
O=C(CN1CCc2cc(-c3ccc(Cl)cc3)ccc2C1)N1CCN(C2CCCC2)CC1 [Compound 405, 6-(4-chlorophenyl)-2-[2-(4-cyclopentylpiperazin-1-yl)-2-oxoethyl]-1,2,3,4-tetrahydroisoquinoline]
Cc1cc(C)cc(-c2ccc3c(c2)CCN(CC(=O)N2CCN(C(C)C)CC2)C3)c1 [Compound 458, 6-(3,5-dimethylphenyl)-2-[2-(4-isopropylpiperazin-1-yl)-2-oxoethyl]-1,2,3,4-tetrahydroisoquinoline]

same assay, conditions: Table II "Ki", symbol †, 4 μM of the compound, 1 μM histamine, read-out: percent inhibition of the signal obtained with 1 μM histamine

Inhibition at 4 µM, ≥ 90%:
O=C(CN1CCc2cc(-c3ccc(Oc4ccccc4)cc3)ccc2C1)N1CCN(C2CCCCC2)CC1 [Compound 488, 2-[2-(4-cyclohexylpiperazin-1-yl)-2-oxoethyl]-6-(4-phenoxyphenyl)-1,2,3,4-tetrahydroisoquinoline]
CC(C)C(C)N1C[C@@H]2C[C@H]1CN2C(=O)CN1CCc2cc(-c3cncnc3)ccc2C1 (stereo in doubt) [Compound 608, 2-{2-[(1S,4S)-5-(1,2-dimethylpropyl)-2,5-diazabicyclo[2.2.1]hept-2-yl]-2-oxoethyl}-6-pyrimidin-5-yl-1,2,3,4-tetrahydroisoquinoline]
O=C(CN1CCc2cc(-c3ccc(F)c(Cl)c3)ccc2C1)N1CCN(C2CCC2)CC1 [Compound 579, 6-(3-chloro-4-fluorophenyl)-2-[2-(4-cyclobutylpiperazin-1-yl)-2-oxoethyl]-1,2,3,4-tetrahydroisoquinoline]
CCOc1ccc(-c2ccc3c(c2)CCN(CC(=O)N2CCN(C(C)C)CC2)C3)cc1 [Compound 531, 6-(4-ethoxyphenyl)-2-[2-(4-isopropylpiperazin-1-yl)-2-oxoethyl]-1,2,3,4-tetrahydroisoquinoline]
CC(C1CC1)N1CCN(C(=O)CN2CCc3cc(-c4cncnc4)ccc3C2)CC1 (stereo not shown) [Compound 609, 2-{2-[4-(1-cyclopropylethyl)piperazin-1-yl]-2-oxoethyl}-6-pyrimidin-5-yl-1,2,3,4-tetrahydroisoquinoline]
CC(C)N1CCN(C(=O)CN2CCc3cc(-c4cc(F)ccc4F)ccc3C2)CC1 [Compound 585, 6-(2,5-difluorophenyl)-2-[2-(4-isopropylpiperazin-1-yl)-2-oxoethyl]-1,2,3,4-tetrahydroisoquinoline]
COc1ccc(-c2ccc3c(c2)CCN(CC(=O)N2CCN(C4CCC4)CC2)C3)c(OC)c1 [Compound 563, 2-[2-(4-cyclobutylpiperazin-1-yl)-2-oxoethyl]-6-(2,4-dimethoxyphenyl)-1,2,3,4-tetrahydroisoquinoline]
O=C(CN1CCc2cc(-c3cccc(OC(F)(F)F)c3)ccc2C1)N1CCN(C2CCCCC2)CC1 [Compound 492, 2-[2-(4-cyclohexylpiperazin-1-yl)-2-oxoethyl]-6-[3-(trifluoromethoxy)phenyl]-1,2,3,4-tetrahydroisoquinoline]
CCOc1cccc(-c2ccc3c(c2)CCN(CC(=O)N2CCN(C(C)C)CC2)C3)c1 [Compound 485, 6-(3-ethoxyphenyl)-2-[2-(4-isopropylpiperazin-1-yl)-2-oxoethyl]-1,2,3,4-tetrahydroisoquinoline]
CC(C)Oc1cccc(-c2ccc3c(c2)CCN(CC(=O)N2CCN(C(C)C)CC2)C3)c1 [Compound 515, 6-(3-isopropoxyphenyl)-2-[2-(4-isopropylpiperazin-1-yl)-2-oxoethyl]-1,2,3,4-tetrahydroisoquinoline]
CC(C)N1CCN(C(=O)CN2CCc3cc(-c4ccc(Oc5ccccc5)cc4)ccc3C2)CC1 [Compound 489, 2-[2-(4-isopropylpiperazin-1-yl)-2-oxoethyl]-6-(4-phenoxyphenyl)-1,2,3,4-tetrahydroisoquinoline]
